Measured values as given in US12691092B2, “Method for reducing cutaneous skin scarring by pre-emptive priming and compounds and compositions for its implementation” (SOS SCIENCE OF SKIN LTD, priority 2020, dated 2026).

How the values were obtained:
Assay type in all cases: in vivo, human
[1] = tested on: Fc epsilon RI (FcεRI); assay: Fc epsilon RI immunohistochemical marker in scar biopsies; conditions: week 4, all groups, p<0.01
Method: (§1) A double-blind randomized placebo-controlled trial was conducted using a temporal punch-biopsy model. The punch biopsy and topical application methodology used in the study is illustrated in FIG. 1, namely showing pre-injury pre-emptive priming (7-days), pre-injury pre-emptive priming (3-days), day of injury (immediate application on day 0), post-injury (delayed 2 weeks post injury) including biopsy time points and time of topical applications. Each group applied both placebo and topical formulations twice daily for the duration of the study until week 8, with only the starting time point differing between groups Participants were split into 4 groups (n=10 in each group) in order to compare different modes (timings) of commencement of the topical application: • Group-1: Pre-emptive Priming (7-days): pre-injury • Group-2: Pre-emptive Priming (3-days): pre-injury • Group-3: Immediate (0-day): day-of-injury • Group-4: Delayed (14-days): post-injury Clinical quantitative devices were used to objectively monitor cutaneous healing at weekly intervals and punch biopsies were performed on day 0 (uninjured skin) and at weeks 4 and 8 for protein and gene expression analyses. […] Excisional skin biopsies in upper arms were evaluated weekly with multiple quantitative devices over an 8-week period. […]

[2] = tested on: langerin; assay: Langerin immunohistochemical marker in scar biopsies; conditions: week 4, group-1 only (7-day pre-injury priming), p=0.02
Method: as §1

[3] = tested on: CD31; assay: CD31 angiogenic immunohistochemical marker in scar biopsies
Method: A double-blind randomized placebo-controlled trial was conducted using a temporal punch-biopsy model. The punch biopsy and topical application methodology used in the study is illustrated in FIG. 1, namely showing pre-injury pre-emptive priming (7-days), pre-injury pre-emptive priming (3-days), day of injury (immediate application on day 0), post-injury (delayed 2 weeks post injury) including biopsy time points and time of topical applications. Each group applied both placebo and topical formulations twice daily for the duration of the study until week 8, with only the starting time point differing between groups Participants were split into 4 groups (n=10 in each group) in order to compare different modes (timings) of commencement of the topical application: • Group-1: Pre-emptive Priming (7-days): pre-injury • Group-2: Pre-emptive Priming (3-days): pre-injury • Group-3: Immediate (0-day): day-of-injury • Group-4: Delayed (14-days): post-injury Clinical quantitative devices were used to objectively monitor cutaneous healing at weekly intervals and punch biopsies were performed on day 0 (uninjured skin) and at weeks 4 and 8 for protein and gene expression analyses. In the trial, topical EGCG and a placebo topical were applied twice daily for the duration of the trial until week 8 with only the starting time points differing between groups. Clinical and experimental analysis involved use of non-invasive devices as well as protein and gene studies. Excisional skin biopsies in upper arms were evaluated weekly with multiple quantitative devices over an 8-week period. […] In order to further support these findings and the clinical findings, two well-known and established angiogenic immunohistochemical markers; CD31 and VEGF-A were used. […] There was a significant difference between groups (p=0.02) at week-4.

[4] = tested on: VEGF-A; assay: VEGF-A angiogenic immunohistochemical marker in scar biopsies
Method: A double-blind randomized placebo-controlled trial was conducted using a temporal punch-biopsy model. The punch biopsy and topical application methodology used in the study is illustrated in FIG. 1, namely showing pre-injury pre-emptive priming (7-days), pre-injury pre-emptive priming (3-days), day of injury (immediate application on day 0), post-injury (delayed 2 weeks post injury) including biopsy time points and time of topical applications. Each group applied both placebo and topical formulations twice daily for the duration of the study until week 8, with only the starting time point differing between groups Participants were split into 4 groups (n=10 in each group) in order to compare different modes (timings) of commencement of the topical application: • Group-1: Pre-emptive Priming (7-days): pre-injury • Group-2: Pre-emptive Priming (3-days): pre-injury • Group-3: Immediate (0-day): day-of-injury • Group-4: Delayed (14-days): post-injury Clinical quantitative devices were used to objectively monitor cutaneous healing at weekly intervals and punch biopsies were performed on day 0 (uninjured skin) and at weeks 4 and 8 for protein and gene expression analyses. In the trial, topical EGCG and a placebo topical were applied twice daily for the duration of the trial until week 8 with only the starting time points differing between groups. Clinical and experimental analysis involved use of non-invasive devices as well as protein and gene studies. Excisional skin biopsies in upper arms were evaluated weekly with multiple quantitative devices over an 8-week period. […] In order to further support these findings and the clinical findings, two well-known and established angiogenic immunohistochemical markers; CD31 and VEGF-A were used.

For O=C(OC1Cc2c(O)cc(O)cc2OC1c1cc(O)c(O)c(O)c1)c1cc(O)c(O)c(O)c1 (single isomer, unassigned; (-)) [EGCG, (-)-epigallocatechin-3-gallate], the “FcεRI in EGCG-treated samples compared to placebo” value [1] was “significant reduction”, the “langerin reduction in EGCG-treated samples compared to placebo” value [2] was 13% and the “Angiogenic markers in primed uninjured skin” value ([3]; primed uninjured skin prior to injury) was “reduces angiogenic markers”. For the same molecule, the “CD31: larger reduction in group 1 compared to group-4” value ([3]; week 4, 7-day priming vs delayed, p=0.01) was 40%, the “CD31 in EGCG-treated samples compared with placebo” value ([3]; weeks 4 and 8, all groups, p<0.01) was “significantly down-regulated” and the “VEGF-A in EGCG-treated samples compared to placebo” value ([4]; week 4, all groups, p<0.01) was “significantly down-regulated”. The “VEGF-A: greater reduction in group-2 compared to group-4” value ([4]; week 4, 3-day priming vs delayed, p=0.01) was 56%, the “VEGF-A: greater reduction in group-1 compared to group-4” value ([4]; week 4, 7-day priming vs delayed, p=0.005) was 51% and the “VEGF-A in EGCG-treated samples” value ([4]; week 8, groups 1-3, p<0.01) was “significant reduction”.
